According to ChEMBL document CHEMBL6071146, “Synthesis and identification of a selective FGFR2 degrader with potent antiproliferative effects in gastric cancer” (Eur J Med Chem, 2024):
Calls of active or inactive are those of the source. The calls are words filed in the database; no cut-off is given here.

Legend:
SNU-16 [1] = test: Antiproliferative activity against human SNU-16 cells incubated for 72 hrs by MTT assay; conditions: SNU-16, 72 h
[2] = Antiproliferative activity against human KATO III cells incubated for 72 hrs by MTT assay
[3] = Cmax in Sprague-Dawley rat at 5 mg/kg, ip measured for 24 hrs by LC-MS/MS analysis; type: ADME, organism-based; conditions: in vivo
[4] = Half life in Sprague-Dawley rat at 5 mg/kg, ip measured for 24 hrs by LC-MS/MS analysis; type: ADME, organism-based; conditions: in vivo
[5] = AUC (0 to t) in Sprague-Dawley rat at 2 mg/kg, iv measured for 24 hrs by LC-MS/MS analysis; type: ADME, organism-based; conditions: in vivo
cells [6] = conditions: Homo sapiens, KATO III, 24 h, read-out: Activity
Description: Induction of apoptosis in human KATO III cells assessed as viable cells at 500 nM incubated for 24 hrs by Annexin V-FITC/PI staining based flow cytometry (Rvb = 87.00 %)

[7] = Apparent volume of distribution during terminal phase in Sprague-Dawley rat at 5 mg/kg, ip measured for 24 hrs by LC-MS/MS analysis; type: ADME, organism-based; conditions: in vivo, read-out: Vz/F
[8] = Clearance in Sprague-Dawley rat at 2 mg/kg, iv measured for 24 hrs by LC-MS/MS analysis; type: ADME, organism-based; conditions: in vivo
[9] = Toxicity in BALB/c mouse xenografted with human SNU-16 cells assessed as weight loss at 10 to 20 mg/kg, ip qd for 25 days; type: organism-based; conditions: in vivo, 600 h, dose 10-20 mg/kg, time 25 day
[10] = Toxicity in BALB/c mouse xenografted with human SNU-16 cells assessed as damage in spleen at 10 to 20 mg/kg, ip qd for 25 days by H and E staining based analysis; type: organism-based; conditions: in vivo, 600 h, dose 10-20 mg/kg, time 25 day
BaF3 [11] = test: Antiproliferative activity against mouse BaF3 cells stably expressing TEL-FGFR4 incubated for 72 hrs bby CellTiter-Glo assay; conditions: BaF3, 72 h
SNU-16 [12] = test: Antitumor activity against human SNU-16 cells xenografted in BALB/c mouse at 20 mg/kg, ip qd for 25 days relative to control; conditions: SNU-16, 600 h, read-out: TGI
SNU-16 [13] = test: Antitumor activity against human SNU-16 cells xenografted in BALB/c mouse assessed as tumor growth suppression at 10 to 20 mg/kg, ip qd for 25 days; type: functional, organism-based; conditions: dose 10-20 mg/kg, time 25.0 day
BaF3 [14] = test: Antiproliferative activity against mouse BaF3 cells stably expressing TEL-FGFR1 incubated for 72 hrs bby CellTiter-Glo assay; conditions: BaF3, 72 h
[15] = Half life in Sprague-Dawley rat at 2 mg/kg, iv measured for 24 hrs by LC-MS/MS analysis; type: ADME, organism-based; conditions: in vivo
BaF3 [16] = test: Antiproliferative activity against mouse BaF3 cells stably expressing TEL-FGFR3 incubated for 72 hrs bby CellTiter-Glo assay; conditions: BaF3, 72 h
[17] = Volume of distribution at steady state in Sprague-Dawley rat at 2 mg/kg, iv measured for 24 hrs by LC-MS/MS analysis; type: ADME, organism-based; conditions: in vivo, read-out: Vdss
[18] = Tmax in Sprague-Dawley rat at 5 mg/kg, ip measured for 24 hrs by LC-MS/MS analysis; type: ADME, organism-based; conditions: in vivo
KATO III [19] = test: Induction of cell cycle arrest at G0/G1 phase in human KATO III cells assessed as reduction in CDK4 level at 500 to 1000 nM incubated for 24 hrs by Western blot analysis; type: functional, cell-based; conditions: dose 500-1000 nM
[20] = Toxicity in BALB/c mouse xenografted with human SNU-16 cells assessed as obvious side effect at 10 to 20 mg/kg, ip qd for 25 days; type: organism-based; conditions: in vivo, 600 h, dose 10-20 mg/kg, time 25 day
Homo sapiens = species on record: Homo sapiens; test: Induction of VEGFR2 (unknown origin) degradation
[21] = AUC (infinity) in Sprague-Dawley rat at 5 mg/kg, ip measured for 24 hrs by LC-MS/MS analysis; type: ADME, organism-based; conditions: in vivo
BaF3 [22] = test: Antiproliferative activity against mouse BaF3 cells stably expressing TEL-FGFR2 incubated for 72 hrs bby CellTiter-Glo assay; conditions: BaF3, 72 h
[23] = Toxicity in BALB/c mouse xenografted with human SNU-16 cells assessed as damage in kidney at 10 to 20 mg/kg, ip qd for 25 days by H and E staining based analysis; type: organism-based; conditions: in vivo, 600 h, dose 10-20 mg/kg, time 25 day
SNU-16 [24] = test: Antitumor activity against human SNU-16 cells xenografted in BALB/c mouse assessed as decrease in tumor weight at 10 to 20 mg/kg, ip qd for 25 days; type: functional, organism-based; conditions: dose 10-20 mg/kg, time 25.0 day
[25] = MRT (infinity) in Sprague-Dawley rat at 2 mg/kg, iv measured for 24 hrs by LC-MS/MS analysis; type: ADME, organism-based; conditions: in vivo
[26] = Apparent oral clearance in Sprague-Dawley rat at 5 mg/kg, ip measured for 24 hrs by LC-MS/MS analysis; type: ADME, organism-based; conditions: in vivo
KATO III [27] = test: Induction of cell cycle arrest at G0/G1 phase in human KATO III cells assessed as reduction in Cyclin D1 level at 500 to 1000 nM incubated for 24 hrs by Western blot analysis; type: functional, cell-based; conditions: dose 500-1000 nM
KATO III [28] = test: Induction of apoptosis in human KATO III cells assessed as increase in cleaved caspase-3 level at 0.5 to 1 uM incubated for 24 hrs by Western blot analysis; type: functional, cell-based; conditions: dose 0.5-1 µM
[29] = Toxicity in BALB/c mouse xenografted with human SNU-16 cells assessed as drug tolerance at 10 to 20 mg/kg, ip qd for 25 days; type: organism-based; conditions: in vivo, 600 h, dose 10-20 mg/kg, time 25 day
[30] = Toxicity in BALB/c mouse xenografted with human SNU-16 cells assessed as damage in lung at 10 to 20 mg/kg, ip qd for 25 days by H and E staining based analysis; type: organism-based; conditions: in vivo, 600 h, dose 10-20 mg/kg, time 25 day
SNU-16 [31] = test: Antitumor activity against human SNU-16 cells xenografted in BALB/c mouse assessed as decrease in tumor size at 10 to 20 mg/kg, ip qd for 25 days; type: functional, organism-based; conditions: dose 10-20 mg/kg, time 25.0 day
KATO III [32] = test: Induction of cell cycle arrest at G0/G1 phase in human KATO III cells assessed as reduction in CDK2 level at 500 to 1000 nM incubated for 24 hrs by Western blot analysis; type: functional, cell-based; conditions: dose 500-1000 nM
SNU-16 [33] = test: Induction of apoptosis in human SNU-16 cells assessed as increase in cleaved caspase-3 level at 0.5 to 1 uM incubated for 24 hrs by Western blot analysis; type: functional, cell-based; conditions: dose 0.5-1 µM
[34] = Toxicity in BALB/c mouse xenografted with human SNU-16 cells assessed as damage in liver at 10 to 20 mg/kg, ip qd for 25 days by H and E staining based analysis; type: organism-based; conditions: in vivo, 600 h, dose 10-20 mg/kg, time 25 day
[35] = Toxicity in BALB/c mouse xenografted with human SNU-16 cells assessed as damage in heart at 10 to 20 mg/kg, ip qd for 25 days by H and E staining based analysis; type: organism-based; conditions: in vivo, 600 h, dose 10-20 mg/kg, time 25 day
cells [36] = conditions: Homo sapiens, KATO III, 24 h, read-out: Activity; remark: listed apart in the source
Description: Induction of apoptosis in human KATO III cells assessed as viable cells at 1000 nM incubated for 24 hrs by Annexin V-FITC/PI staining based flow cytometry (Rvb = 87.00 %)

[37] = MRT (infinity) in Sprague-Dawley rat at 5 mg/kg, ip measured for 24 hrs by LC-MS/MS analysis; type: ADME, organism-based; conditions: in vivo
KATO III [38] = test: Induction of cell cycle arrest at G0/G1 phase in human KATO III cells assessed as reduction in Cyclin E level at 500 to 1000 nM incubated for 24 hrs by Western blot analysis; type: functional, cell-based; conditions: dose 500-1000 nM
[39] = AUC (infinity) in Sprague-Dawley rat at 2 mg/kg, iv measured for 24 hrs by LC-MS/MS analysis; type: ADME, organism-based; conditions: in vivo
SNU-16 [40] = test: cells; conditions: Homo sapiens, SNU-16, 24 h, read-out: Activity
Description: Induction of apoptosis in human SNU-16 cells assessed as viable cells at 1000 nM incubated for 24 hrs by Annexin V-FITC/PI staining based flow cytometry (Rvb = 77.12 %)

[41] = Oral bioavailability in Sprague-Dawley rat at 5 mg/kg measured for 24 hrs by LC-MS/MS analysis; type: ADME, organism-based; conditions: in vivo
SNU-16 [42] = test: Induction of cell cycle arrest at G0/G1 phase in human SNU-16 cells assessed as increase in p21 level at 500 to 1000 nM incubated for 24 hrs by Western blot analysis; type: functional, cell-based; conditions: dose 500-1000 nM
[43] = AUC (0 to t) in Sprague-Dawley rat at 5 mg/kg, ip measured for 24 hrs by LC-MS/MS analysis; type: ADME, organism-based; conditions: in vivo
SNU-16 [44] = test: cells; conditions: Homo sapiens, SNU-16, 24 h, read-out: Activity; remark: listed apart in the source
Description: Induction of apoptosis in human SNU-16 cells assessed as viable cells at 500 nM incubated for 24 hrs by Annexin V-FITC/PI staining based flow cytometry (Rvb = 77.12 %)

KATO III [45] = test: Induction of cell cycle arrest at G0/G1 phase in human KATO III cells assessed as increase in p21 level at 500 to 1000 nM incubated for 24 hrs by Western blot analysis; type: functional, cell-based; conditions: dose 500-1000 nM

SMILES: COc1cc(OC)cc(N(CCNC(C)C)c2ccc3ncc(-c4cnn(CCCCCCCC(=O)NCCNc5cccc6c5C(=O)N(C5CCC(=O)NC5=O)C6=O)c4)nc3c2)c1 (configuration not stated)
- IC50 (SNU-16 [1]): < 0.00017 µM
- IC50 [2]: < 0.00017 µM

SMILES: COc1cc(OC)cc(N(CCNC(C)C)c2ccc3ncc(-c4cnn(CCOCCOCCOCC(=O)NCCNc5cccc6c5C(=O)N(C5CCC(=O)NC5=O)C6=O)c4)nc3c2)c1 (configuration not stated)
- IC50 (SNU-16 [1]): 0.001 µM
- IC50 [2]: 0.14 µM

SMILES: COc1cc(OC)cc(N(CCNC(C)C)c2ccc3ncc(-c4cnn(CCOCC(=O)NCCNc5cccc6c5C(=O)N(C5CCC(=O)NC5=O)C6=O)c4)nc3c2)c1 (configuration not stated)
- IC50 (SNU-16 [1]): 0.023 µM
- IC50 [2]: 0.388 µM

SMILES: COc1cc(OC)cc(N(CCNC(C)C)c2ccc3ncc(-c4cnn(CCCCCC(=O)NCCNc5cccc6c5C(=O)N(C5CCC(=O)NC5=O)C6=O)c4)nc3c2)c1 (configuration not stated)
- IC50 (SNU-16 [1]): 0.001 µM
- IC50 [2]: 0.051 µM

SMILES: COc1cc(OC)cc(N(CCNC(C)C)c2ccc3ncc(-c4cnn(CCC(=O)NCC(=O)NCCNc5cccc6c5C(=O)N(C5CCC(=O)NC5=O)C6=O)c4)nc3c2)c1 (configuration not stated)
- IC50 (SNU-16 [1]): 0.15 µM
- IC50 [2]: 0.457 µM

SMILES: COc1cc(OC)cc(N(CCNC(C)C)c2ccc3ncc(-c4cnn(CCCCCCC(=O)NCCNc5cccc6c5C(=O)N(C5CCC(=O)NC5=O)C6=O)c4)nc3c2)c1 (configuration not stated)
- Cmax [3]: 302 ng/mL
- half-life [4]: 7.59 h
- AUC(0-t) at 24 h [5]: 544 ng·h/mL
- viability at 0.5 µM (cells [6]): 66.8%
- IC50 (SNU-16 [1]): < 0.00017 µM
- Vd/F [7]: 51.4 L/kg
- clearance [8]: 59.3 mL/min/kg
- Activity [9]: Non-Toxic
- Activity [10]: Non-Toxic
- IC50 (BaF3 [11]): 0.332 µM
- inhibition in vivo at 20 mg/kg (SNU-16 [12]): 117%
- Activity (SNU-16 [13]): Active
- IC50 (BaF3 [14]): 0.138 µM
- half-life [15]: 4.65 h
- IC50 (BaF3 [16]): 0.0971 µM
- Vd [17]: 7.58 L/kg
- Tmax [18]: 0.25 h
- Activity (KATO III [19]): Active
- Activity [20]: Non-Toxic
- Activity (Homo sapiens): inactive
- AUC(0-inf) [21]: 1070 ng·h/mL
- IC50 (BaF3 [22]): 0.0227 µM
- Activity [23]: Non-Toxic
- Activity (SNU-16 [24]): Active
- MRT inf [25]: 2.27 h
- CL/F [26]: 78.2 mL/min/kg
- Activity (KATO III [27]): Active
- Activity (KATO III [28]): Active
- Activity [29]: Non-Toxic
- Activity [30]: Non-Toxic
- IC50 [2]: < 0.00017 µM
- Activity (SNU-16 [31]): Active
- Activity (KATO III [32]): Active
- Activity (SNU-16 [33]): Active
- Activity [34]: Non-Toxic
- Activity [35]: Non-Toxic
- viability at 1 µM (cells [36]): 65%
- MRT inf [37]: 6.53 h
- Activity (KATO III [38]): Active
- AUC(0-inf) [39]: 570 ng·h/mL
- viability at 1 µM (SNU-16 [40]): 42.7%
- bioavailability [41]: 74.8%
- Activity (SNU-16 [42]): Active
- AUC(0-t) at 24 h [43]: 991 ng·h/mL
- viability at 0.5 µM (SNU-16 [44]): 45.6%
- Activity (KATO III [45]): Active

SMILES: COc1cc(OC)cc(N(CCNC(C)C)c2ccc3ncc(-c4cnn(CCCCCCC(=O)NCC(=O)NCCNc5cccc6c5C(=O)N(C5CCC(=O)NC5=O)C6=O)c4)nc3c2)c1 (configuration not stated)
- IC50 (SNU-16 [1]): 0.001 µM
- IC50 [2]: 0.001 µM

SMILES: COc1cc(OC)cc(N(CCNC(C)C)c2ccc3ncc(-c4cnn(CCCCCC(=O)NCC(=O)NCCNc5cccc6c5C(=O)N(C5CCC(=O)NC5=O)C6=O)c4)nc3c2)c1 (configuration not stated)
- IC50 (SNU-16 [1]): 0.001 µM
- IC50 [2]: 0.595 µM

SMILES: COc1cc(OC)cc(N(CCNC(C)C)c2ccc3ncc(-c4cnn(CCCCCCCCC(=O)NCCNc5cccc6c5C(=O)N(C5CCC(=O)NC5=O)C6=O)c4)nc3c2)c1 (configuration not stated)
- IC50 (SNU-16 [1]): < 0.00017 µM
- IC50 [2]: < 0.00017 µM
